Earlier results, collected in patent US12691091B2, “Compositions comprising cetylated fatty acids for use in the treatment of gastric mucosa, diabetes and high blood glucose levels” (PHARMANUTRA S.P.A., priority 2019, dated 2026).

Settings: European Union food additive E319

acceptable daily intake (ADI): 0.7 mg/kg of body weight
SMILES: CC(C)(C)c1cc(O)ccc1O [TBHQ, Tert-butyl-hydroquinone]
